From patent publication US11685710B2, “Cationic sulfonamide amino lipids and amphiphilic zwitterionic amino lipids” (The Board of Regents of the University of Texas System, priority 2016, dated 2023) come the findings set out here.

Assay [1] relates to IGROV1 cells. The assay can be described thus: mRNA delivery in vitro assay (luciferase / mCherry mRNA). In kind it is cell-based, human. How it is done: ZAL mRNA delivery in vitro assay: ZAL nanoparticles with firefly luciferase mRNA (Tri-Link Biotechnologies) were prepared using the in vitro nanoparticle formulation method outlined above. IGROV1 cells were seed in white opaque 96-well tissue culture plates at a seeding density of 5×10^3 cells per well in 100 μL RPMI 1640 medium supplemented with 5% FBS, and allowed to attach overnight. After overnight incubation, and additional 100 μL medium was added to the wells. The ZAL:mRNA nanoparticles were prepared at a ZAL:mRNA weight ratio of 20:1, 10:1, 7.5:1 and 5:1, and lipid mixture molar compositions of 50:38.5 ZAL:cholesterol, with PEG lipid supplemented at a molar ratio of 5%, 2%, 1% or 0.5% at each weight ratio. The ZAL-mRNA nanoparticles were added to the cells at a dose of 100 ng mRNA per well and incubated for the indicated time (ranging from 6 h to 48 h), after which time cell viability and luciferase expression were evaluated with the ONE-Glo+Tox Assay cell viability and luciferase assay (Promega) and normalized to untreated cells (N=4+/−standard deviation)
ZNPs with mRNA (Tri-Link Biotechnologies) were prepared using the in vitro nanoparticle formulation method outlined above. IGROV1 cells were seeded in white opaque 96-well tissue culture plates at a seeding density of 5×10^3 cells per well in 100 μL RPMI 1640 medium supplemented with 5% FBS, and allowed to attach overnight. After overnight incubation, an additional 100 μL medium was added to the wells. The ZAL:mRNA nanoparticles were prepared at ZAL:mRNA weight ratios of 20:1, 10:1, 7.5:1 and 5:1, and lipid mixture molar compositions of 50:38.5:n ZAL:cholesterol:PEG-lipid, where n=5, 2, 1, and 0.5 at each weight ratio. The ZAL-mRNA nanoparticles were added to the cells at the appropriate mRNA dose and incubated for the indicated time (ranging from 6 h to 48 h), after which time cell viability and luciferase expression were evaluated with the ONE-Glo+Tox Assay (Promega) and normalized to untreated cells (N=4+/−standard deviation).

Assay [2] is described as follows: In vivo luciferase mRNA delivery (bioluminescence imaging). Also noted: species or system mice. Conditions: Luc mRNA i.v., 24 h; athymic nude 1 mg/kg, C57BL/6 4 mg/kg, NSG 1 mg/kg. How it is done: In vivo luciferase mRNA delivery: All experiments were approved by the Institutional Animal Care & Use Committee (IACUC) of The University of Texas Southwestern Medical Center and were consistent with local, state and federal regulations as applicable. ZA3-Ep10 ZAL was formulated with in vivo formulation at 50 ZAL:38.5 cholesterol: 2 or 0.5 PEG-lipid mole ratio in the lipid mix, and 7.5:1 ZAL:mRNA weight ratio. Athymic Nude-Foxn1^nu mice (Harlan Laboratories) were injected with ZAL-mRNA NPs at a dose of 1 mg/kg via tail vein injection or intraperiotneal injection. After 24 h and 48 h the luciferase expression was evaluated by live animal bioluminescence imaging Animals were anesthetized under isofluorane, and D-luciferin monosodium hydrate (GoldBio) substrate was injected IP. […]
All experiments were approved by the Institutional Animal Care & Use Committee (IACUC) of The University of Texas Southwestern Medical Center and were consistent with local, state and federal regulations as applicable. […] After 24 h and 48 h the luciferase expression was evaluated by live animal bioluminescence imaging Animals were anesthetized under isofluorane, and D-luciferin monosodium hydrate (GoldBio) substrate was injected subcutaneously in the neck scruff. […]

The test system of assay [3] is Lox-Stop-Lox tdTomato (tdTO) cassette. Put plainly: In vivo delivery of Cas9 mRNA and sgLoxP (tdTomato activation). Also on record: species or system mice. The note with it: 5 mg/kg. How it is done: ZA3-Ep10 ZNPs encapsulating Cas9 mRNA and sgLoxp were prepared according to the in vivo nanoparticle formulation protocol using the Nanoassemblr microfluidic mixing device. The lipid mix contained 50 ZA3-Ep10:38.5 cholesterol:0.5 PEG-lipid molar ratios, and the particles were formulated at a 7.5:1 ZAL:total RNA weight ratio. The Cas9 mRNA:sgLoxP weight ratio was maintained at 4:1. […] After which they were sacrificed and the major organs imaged using the IVIS Lumina system for fluorescence expression (dsRed filter set) compared to an uninjected Rosa 26-LSL-tdTomato mouse. A liver specific Cre recombinase adeno-associated virus (Cre-AAV8) injected intravenously via tail vein injection (4 days) was used as a positive control.
Tissue were fixed in 4% paraformaldehyde (PFA) at RT for 2 hours, then changed in 30% sucrose (in PBS) at 4° C. overnight. Then the tissues were embedded in Cryo-gel (Leica Biosystems), and frozen in dry ice. The blocks were sectioned using Cryostat machine (Leica Biosystems) at 8 μm thickness. […]
For detection of Tomato positive populations, primary hepatocytes (2×10^6/mL) were isolated and stained with DAPI (Roche, 2 μg/mL) for dead cell exclusion. Cells were analyzed with BD FACSAria Fusion machine (BD Biosciences). Tomato positive cells were counted in DAPI negative (live cell) populations.

Regarding `CCCCCCCCC(O)CN(CCC(=O)NCC[N+](C)(C)CCCS(=O)(=O)[O-])CCN(CCN(CC(O)CCCCCCCC)CC(O)CCCCCCCC)CCN(CC(O)CCCCCCCC)CC(O)CCCCCCCC` (stereo not drawn) [ZA3-Ep10], the “delivery efficacy of mRNA versus PEG lipid ratio” value in assay [1] (PEG-lipid 5, 2, 1 or 0.5 in lipid mix) is “decreased with higher PEG lipid ratios”. In addition, the “luciferase expression versus mRNA dose” value in assay [1] (luciferase mRNA (~2,000 nt), IGROV1 cells) is listed as “dose-dependent”. For the same compound, the “mRNA dose required for high expression” value in assay [1] (luciferase mRNA, IGROV1 cells) is recorded as less than 600 pM. In addition, the mCherry expression entry in assay [1] (mCherry mRNA (~1,000 nt), IGROV1 cells) is “Bright mCherry expression”. Besides, the “tissues with expression of luciferase” value in assay [2] was “liver, lung and spleen”. For the same compound, the “fluorescent signal 2 months after treatment” value in assay [3] is “significant fluorescent signal in the liver and kidneys”.
